Measured values from PubChem BioAssay AID2060611 (Molecular Pharmacology Branch, DTP, NCI, 2025).

Tested on: 628569-122-R-J1-PDC complex spheroid viability
Experiment: Anticancer human tumor 628569-122-R-J1-PDC patient-derived head and neck squamous carcinoma cell line growth inhibition [CLK]
Conditions: for IC50: curve of first compound; for viability, T/C: stronger effect = lower value; active = viability on the fitted dose curve at most 10% of control; inactive = the rest
In short: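 Multi-cell-type spheroids combined patient-derived tumor cells with HUVEC endothelial cells and human mesenchymal stem cells. Paired agents were dosed in half-log steps down from about clinical Cmax, or from 10 microM where Cmax was unknown.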
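Note: spheroids exposed to agents for seven days before readout.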
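Throughout, for viability, T/C: 100% = DMSO vehicle control viability.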

COc1ccc([C@@H](O)c2cc(-c3ncnc4cc(N5CCOCC5)ccc34)c(F)cc2Cl)nn1 + CNC(=O)c1ccc(Nc2nc(OC3CCCC3)c3c(-c4ccc5nc(C)oc5c4)c[nH]c3n2)c(OC)c1
< 31.6 nM: IC50 (second compound 0.316 µM) | IC50 (second compound 1 µM) | IC50 (second compound 3.16 µM) | IC50 (second compound 10 µM)
2010 nM: IC50 (second compound 0.0316 µM)
260 nM: IC50 (second compound 0.1 µM)
inactive: viability, T/C (second compound 0.0316 µM, first compound 0.0316 µM) 83.7% | viability, T/C (second compound 0.0316 µM, first compound 0.1 µM) 80.5% | viability, T/C (second compound 0.0316 µM, first compound 0.316 µM) 78.1% | viability, T/C (second compound 0.0316 µM, first compound 1 µM) 61.8% | viability, T/C (second compound 0.0316 µM, first compound 3.16 µM) 42.3% | viability, T/C (second compound 0.0316 µM, first compound 10 µM) 35% | viability, T/C (second compound 0.1 µM, first compound 0.0316 µM) 54.5% | viability, T/C (second compound 0.1 µM, first compound 0.1 µM) 47.7% | viability, T/C (second compound 0.1 µM, first compound 0.316 µM) 49.6% | viability, T/C (second compound 0.1 µM, first compound 1 µM) 48.4% | viability, T/C (second compound 0.1 µM, first compound 3.16 µM) 41.9% | viability, T/C (second compound 0.1 µM, first compound 10 µM) 33.8% | viability, T/C (second compound 0.316 µM, first compound 0.0316 µM) 47.5% | viability, T/C (second compound 0.316 µM, first compound 0.1 µM) 41.4% | viability, T/C (second compound 0.316 µM, first compound 0.316 µM) 41.7% | viability, T/C (second compound 0.316 µM, first compound 1 µM) 39% | viability, T/C (second compound 0.316 µM, first compound 3.16 µM) 39.4% | viability, T/C (second compound 0.316 µM, first compound 10 µM) 29.7% | viability, T/C (second compound 1 µM, first compound 0.0316 µM) 46.8% | viability, T/C (second compound 1 µM, first compound 0.1 µM) 42.9% | viability, T/C (second compound 1 µM, first compound 0.316 µM) 41.7% | viability, T/C (second compound 1 µM, first compound 1 µM) 29.6% | viability, T/C (second compound 1 µM, first compound 3.16 µM) 36.4% | viability, T/C (second compound 1 µM, first compound 10 µM) 31.4% | viability, T/C (second compound 3.16 µM, first compound 0.0316 µM) 33.2% | viability, T/C (second compound 3.16 µM, first compound 0.1 µM) 39.5% | viability, T/C (second compound 3.16 µM, first compound 0.316 µM) 34.4% | viability, T/C (second compound 3.16 µM, first compound 1 µM) 37.4% | viability, T/C (second compound 3.16 µM, first compound 3.16 µM) 38.4% | viability, T/C (second compound 3.16 µM, first compound 10 µM) 21% | viability, T/C (second compound 10 µM, first compound 0.0316 µM) 45.1% | viability, T/C (second compound 10 µM, first compound 0.1 µM) 41.7% | viability, T/C (second compound 10 µM, first compound 0.316 µM) 32.2% | viability, T/C (second compound 10 µM, first compound 1 µM) 36.1% | viability, T/C (second compound 10 µM, first compound 3.16 µM) 27.8% | viability, T/C (second compound 10 µM, first compound 10 µM) 18.9%
